Assay results taken from patent publication US20080293099A1, “Lignan Glycosidase and Utilization of the Same” (priority 2004, published 2008).

Columns and labels:
[1] = system: SrSiGT8 recombinant protein; assay: lignan glycosidation activity assay with purified His-SrSiGT8 recombinant protein (HPLC analysis); format: biochemical, Sesamum radiatum; settings: Ni column purified, dialyzed His-SrSiGT8, UDP-glucose, 30° C. for an hour
Protocol: About 1.4 kb DNA fragment containing the full-length SrSiGT8 was excised from pSPB2656 with BamHI/KpnI and then ligated to the BamHI/KpnI site of pQE30 vector (QIAGEN), which was an expression vector for Escherichia coli, to obtain SrSiGT8/pQE30 (pSPB2657). This pSPB2657 expresses recombinant protein (His-SrSiGT8) with His tag consisting of 6 histidine residues fused to SrSiGT8 at the N terminus.
Escherichia coli transformed with pSPB2657 was incubated as in EXAMPLE 7 to express a recombinant protein. The following experiment was all carried out on ice or at 4° C., unless otherwise indicated.
After the cells were dissolved in 5 ml of lysis buffer (20 mM sodium phosphate buffer, 30 mM imidazole, 500 mM NaCl, 5 mM β-mercaptoethanol and 100 μM APSMF) per 1 g, the cells were lysed by ultrasonication, followed by centrifugation at 4000 rpm for 10 minutes. The supernatant obtained was recovered as the crude enzyme solution.
Next, the His-SrSiGT8 recombinant protein was purified through a Ni column. Chelating Sepharose FF resin (Amersham Bioscience) was packed in the column and 0.1M NiSO4 in a volume equal to the resin was added to the resin. Subsequently, the column was washed with water in a volume twice the volume of the resin and then with 20% ethanol in a volume 3 times the volume of the resin.
Then, the column was equilibrated with a lysis buffer in a volume 5 times the volume of the resin and a sample obtained by diluting 5 mL of the crude enzyme solution described above with the lysis buffer to 10-fold was loaded on the column. After the sample naturally dropped by the gravity, the sample was washed 3 times with the lysis buffer in a volume 5 times the volume of the resin and then eluted using 5 ml of an elution buffer (20 mM sodium phosphate buffer, 500 mM imidazole, 500 mM NaCl, 5 mM β-mercaptoethanol and 100 μM APSMF) […]
To 300 μl of the dialyzed sample, 20 μl of the substrate solution (1 mg/ml) and 3 μl of 20 mM UDP-glucose were added to react at 30° C. for an hour. The reaction product was analyzed in a manner similar to EXAMPLE 8.

[2] = system: SaSiGT8 recombinant protein; assay: lignan glycosidation activity assay with SaSiGT8 recombinant protein (SaLGT1) (HPLC analysis); format: biochemical, S. alatum; settings: recombinant protein expressed in Escherichia coli as in EXAMPLE 11
Text: The fragment containing ORF of SaSiGT8 was excised from pSPB2697 with BamHI and KpnI and inserted into the BamHI and KpnI sites of Escherichia coli expression vector pQE30 to give the expression vector pSPB2698. The recombinant SaSiGT8 protein (SaLGT1) was expressed as in EXAMPLE 11 to confirm that the protein had the lignan glycosidation activity. It was also confirmed by SDS-PAGE that the recombinant SaSiGT8 protein (ca. 60 kDa) was present in the lysis supernatant of transgenic Escherichia coli expressing the SaSiGT8 gene (FIG. 9).

[3] = system: SiGT8 recombinant protein; assay: lignan glycosidation activity assay with SiGT8 recombinant protein (HPLC analysis of the product); format: biochemical, Sesamum indicum; settings: crude enzyme solution expressed in Escherichia coli, UDP-glucose, 30° C. for an hour, absorption at 287 nm
Protocol: (§1) Escherichia coli JM109 (TOYOBO) was transformed with Escherichia coli expression vectors pSPB2637, pSPB2642, pSPB2645, pSPB2639 and pSPB2640 prepared in EXAMPLE 6, and preincubated at 37° C. overnight in LB medium supplemented with ampicillin in final concentration of 20 μg/ml. A part of the preincubation culture was added to M9 medium (10 ml) containing 50 μg/ml of ampicillin and 0.5% Casamino acid, and shake cultured to reach A600=0.6-1.0. The composition of M9 medium is as follows: 1×M9 salt, 1 mM MgSO4, 0.2% glucose and 0.001% thiamine hydrochloride. The composition of 10×M9 medium is as follows: a 500 ml aqueous solution containing 30 g of Na2HPO4, 15 g of KH2PO4, 2.5 g of NaCl and 5 g of NH4Cl. Next, IPTG (isopropyl-β-D-thiogalactopyranoside) in a final concentration of 0.5 mM was added to the culture. After further shake culture at 30° C. overnight, centrifugation was performed at 3000 rpm at 4° C. for 10 minutes to collect the cells. […]
(§2) Pinoresinol, piperitol or sesaminol was dissolved in a small quantity of DMSO and further dissolved in 70% ethanol to prepare a substrate solution (1 mg/ml). […]
(§3) The enzyme reaction was terminated by adding 100% acetonitrile (250 μl) containing 0.1% TFA (trifluoroacetic acid) to the reaction tube. […] The resulting supernatant was washed through a filter (pore size of […], 4 mm Millex-LH, Millipore) and then analyzed using high performance liquid chromatography (hereinafter HPLC). […]
Liquid chromatography (Lc-2010c (Shimadzu Corporation)) was performed using a C-30 column (Nomura Chemical, C30-UG-5, 4.6 mm×150 mm). […] Absorption was monitored at 287 nm to detect the compound contained in a sample. The spectra between 190 nm and 400 nm for each peak of the compound were measured using SPD-10AV (Shimadzu Corporation) to detect a substance having two absorption maxima (230 nm and 280 nm) characteristic of lignans. Under the conditions, authentic pinoresinol is detected at about 8.4 minutes, authentic piperitol at about 12.8 minutes and authentic sesaminol at about 13.8 minutes (FIGS. 2 and 3).

[4] = system: SiGT10 recombinant protein; assay: lignan glycosidation activity assay with SiGT10 recombinant protein (HPLC analysis of the product); format: biochemical, Sesamum indicum; settings: crude enzyme solution expressed in Escherichia coli, UDP-glucose, 30° C. for an hour, absorption at 287 nm
Protocol: as §1, with “NH4Cl.” for “NH4Cl. Next, IPTG (isopropyl-β-D-thiogalactopyranoside) in a final concentration of 0.5 mM was added to the culture. After further shake culture at 30° C. overnight, centrifugation was performed at 3000 rpm at 4° C. for 10 minutes to collect the cells.”
as §2, §3
Liquid chromatography (Lc-2010c (Shimadzu Corporation)) was performed using a C-30 column (Nomura Chemical, C30-UG-5, 4.6 mm×150 mm). […] Absorption was monitored at 287 nm to detect the compound contained in a sample. […]

`COc1cc([C@@H]2OC[C@@H]3[C@H]2CO[C@H]3c2ccc3c(c2)OCO3)ccc1O` [piperitol] was tested, and the “glycosidation of the lignan substrate by SrSiGT8 (new product peak with lignan spectrum in HPLC)” value [1] was “peak E having a new spectrum for lignan showing the retention time of about 7.4 minutes was detected”, the “glycosidation of the lignan substrate by SaSiGT8 (monoglucoside formed, HPLC)” value (“glycosidation … (monoglucoside formed, HPLC)” for short) [2] was “produced the respective monoglucosides” and the “glycosidation of the lignan substrate by SiGT8 (new product peak with lignan spectrum in HPLC)” value [3] was “peak D having the spectrum of lignan (retention time of about 7.4 minutes) was newly obtained”.

For `Oc1cc2c(cc1[C@H]1OC[C@H]3[C@@H]1CO[C@@H]3c1ccc3c(c1)OCO3)OCO2` [sesaminol], the “glycosidation of the lignan substrate by SrSiGT8 (new product peak with lignan spectrum in HPLC)” value [1] was “peak F having a new spectrum for lignan showing the retention time of about 8.2 minutes was detected”, the “glycosidation … (monoglucoside formed, HPLC)” value [2] was “produced the respective monoglucosides” and the “glycosidation of the lignan substrate by SiGT8 (new product peak with lignan spectrum in HPLC)” value [3] was “peak B having the spectrum of lignan (retention time of about 8.2 minutes) was newly obtained”. For the same compound, the “glycosidation of the lignan substrate by SiGT10 (new product peak with lignan spectrum in HPLC)” value [4] was “peak C having the spectrum of lignan (retention time of about 8.2 minutes) was newly obtained”.

In the case of pinoresinol, the “glycosidation of the lignan substrate by SrSiGT8 (new product peak with lignan spectrum in HPLC)” value [1] is reported as “any peak with a spectrum for any new lignan was detected”, the “glycosidation … (monoglucoside formed, HPLC)” value [2] is reported as “produced the respective monoglucosides” and the “glycosidation of the lignan substrate by SiGT8 (new product peak with lignan spectrum in HPLC)” value [3] is reported as “peak A having the spectrum of lignan (retention time of about 4.0 minutes) was newly obtained”. For the same compound, the “glycosidation of the lignan substrate by SiGT10 (new product peak with lignan spectrum in HPLC)” value [4] was “any new product was not observed”.
